Laboratory results from patent US7183061B2, “Method of expressing Heliothis ecdysone receptor fusion protein” (Syngenta Limited, priority 1996, dated 2007).

What was measured:
[1] = target: T1, glucocorticoid/Drosophila ecdysone chimeric receptor (UniProt P04150+P34021); assay: Maize protoplast GUS reporter assay with pMF6GREcRS and p221.9GRE6; format: cell-based; conditions: maize protoplasts, reporter plus effector
T1 construct: expressed in transfected cells; host or cells: maize suspension-culture protoplasts
T1 sequence (P04150+P34021 with tags, fused parts or gaps): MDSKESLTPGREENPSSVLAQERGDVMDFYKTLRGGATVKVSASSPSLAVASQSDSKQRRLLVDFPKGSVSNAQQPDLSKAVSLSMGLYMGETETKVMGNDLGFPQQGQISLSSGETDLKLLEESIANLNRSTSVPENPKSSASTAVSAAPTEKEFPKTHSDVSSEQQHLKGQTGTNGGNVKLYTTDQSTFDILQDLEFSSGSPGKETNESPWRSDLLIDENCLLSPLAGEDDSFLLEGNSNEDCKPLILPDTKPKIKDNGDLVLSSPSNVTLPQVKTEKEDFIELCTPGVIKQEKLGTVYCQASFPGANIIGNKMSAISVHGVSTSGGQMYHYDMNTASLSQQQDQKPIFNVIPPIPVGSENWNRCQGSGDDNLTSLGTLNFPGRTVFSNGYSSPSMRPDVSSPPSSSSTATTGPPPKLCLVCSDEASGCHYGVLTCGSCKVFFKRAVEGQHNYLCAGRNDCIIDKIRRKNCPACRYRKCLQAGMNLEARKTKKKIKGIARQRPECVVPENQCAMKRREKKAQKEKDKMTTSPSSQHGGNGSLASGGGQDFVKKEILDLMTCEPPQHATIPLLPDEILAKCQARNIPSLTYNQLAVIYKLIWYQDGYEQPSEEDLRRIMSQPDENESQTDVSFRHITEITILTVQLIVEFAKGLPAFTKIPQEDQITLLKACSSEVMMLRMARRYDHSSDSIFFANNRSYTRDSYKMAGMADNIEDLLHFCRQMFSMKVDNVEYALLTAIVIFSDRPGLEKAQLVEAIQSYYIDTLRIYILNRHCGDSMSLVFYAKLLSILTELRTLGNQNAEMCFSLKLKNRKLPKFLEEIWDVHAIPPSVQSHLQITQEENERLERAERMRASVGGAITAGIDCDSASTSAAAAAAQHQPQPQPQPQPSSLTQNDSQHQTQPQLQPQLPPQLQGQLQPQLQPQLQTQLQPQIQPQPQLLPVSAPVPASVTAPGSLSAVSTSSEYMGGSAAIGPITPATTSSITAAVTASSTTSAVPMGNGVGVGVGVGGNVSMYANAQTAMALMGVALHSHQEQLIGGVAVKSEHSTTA
Procedure: Protoplasts were isolated from a maize suspension culture derived from BE70×A188 embryogenic callus material, which was maintained by subculturing twice weekly in MS0.5mod. (MS medium supplemented with 3% sucrose, 690 mg/l proline, 1 g/l myo-inositol, 0.2 g/l casein acid hydrolysate, 0.5 mg/l 2,4-D, pH 5.6). Cells from suspensions two days post subculture were digested in enzyme mixture (2.0% Cellulase RS, 0.2% Pectolyase Y23, 0.5 M Mannitol, 5 mM CaCl2.2H2O, 0.5% MES, pH 5.6, ˜660 mmol/kg) using ˜10 ml/g cells, incubating at 25° C., dim light, rotating gently for ˜2 hours. The digestion mixture was sieved sequentially through 250 μm and 38 μm sieves, and the filtrate centrifuged at 700 rpm for 3.5 minutes, discarding the supernatant. The protoplasts were resuspended in wash buffer (0.358 M KCl, 1.0 mM NH4NO3, 5.0 mM CaCl2.2H2O, 0.5 mM KH2PO4, pH 4.8, ˜670 mmol/kg) and pelleted as before. This washing step was repeated. The pellet was resuspended in wash buffer and the protoplasts were counted. Transformation was achieved using a Polyethylene glycol method based on Negrutiu et al. Protoplasts were resuspended at 2×10^6/ml in MaMg medium (0.4 M Mannitol, 15 mM MgCl2, 0.1% MES, pH 5.6, ˜450 mmol/kg) aliquotting 0.5 ml/treatment (i.e. 1×10^6 protoplasts/treatment). Samples were heat shocked at 45° C. for 5 minutes then cooled to room temperature. 10 μg each of p221.9GRE6 and pMF6HR1PAT (GR) (1 mg/ml)/treatment were added and mixed in gently, followed by immediate addition of 0.5 ml warm (˜45° C.) PEG solution (40% PEG 3,350 MW in 0.4 M Mannitol, 0.1 M Ca(NO3)2, pH 8.0), which was mixed in thoroughly but gently. Treatments were incubated at room temperature for 20–25 minutes, then 5 ml 0.292 M KCl (pH 5.6, ˜530 mmol/kg) was added step-wise, 1 ml at a time, with mixing. The treatments were incubated for a further 10–15 minutes prior to pelleting the protoplasts by centrifuging as before. […] Protein concentrations of tissue homogenates were determined by the Bio-Rad protein assay (Bradford, 1976). […]

[2] = target: T2, glucocorticoid/Heliothis ecdysone chimeric receptor (UniProt O18473+P04150); assay: HEK293 cells co-transfected with pcDNA3GRHEcR and pSWGRE4 (β-galactosidase reporter); format: cell-based, Heliothis virescens; design: expressed in transfected cells; host or cells: HEK293 (A8); conditions: co-transformed HEK293 cells (FIG. 28)
T2 sequence (P04150+O18473 with tags, fused parts or gaps): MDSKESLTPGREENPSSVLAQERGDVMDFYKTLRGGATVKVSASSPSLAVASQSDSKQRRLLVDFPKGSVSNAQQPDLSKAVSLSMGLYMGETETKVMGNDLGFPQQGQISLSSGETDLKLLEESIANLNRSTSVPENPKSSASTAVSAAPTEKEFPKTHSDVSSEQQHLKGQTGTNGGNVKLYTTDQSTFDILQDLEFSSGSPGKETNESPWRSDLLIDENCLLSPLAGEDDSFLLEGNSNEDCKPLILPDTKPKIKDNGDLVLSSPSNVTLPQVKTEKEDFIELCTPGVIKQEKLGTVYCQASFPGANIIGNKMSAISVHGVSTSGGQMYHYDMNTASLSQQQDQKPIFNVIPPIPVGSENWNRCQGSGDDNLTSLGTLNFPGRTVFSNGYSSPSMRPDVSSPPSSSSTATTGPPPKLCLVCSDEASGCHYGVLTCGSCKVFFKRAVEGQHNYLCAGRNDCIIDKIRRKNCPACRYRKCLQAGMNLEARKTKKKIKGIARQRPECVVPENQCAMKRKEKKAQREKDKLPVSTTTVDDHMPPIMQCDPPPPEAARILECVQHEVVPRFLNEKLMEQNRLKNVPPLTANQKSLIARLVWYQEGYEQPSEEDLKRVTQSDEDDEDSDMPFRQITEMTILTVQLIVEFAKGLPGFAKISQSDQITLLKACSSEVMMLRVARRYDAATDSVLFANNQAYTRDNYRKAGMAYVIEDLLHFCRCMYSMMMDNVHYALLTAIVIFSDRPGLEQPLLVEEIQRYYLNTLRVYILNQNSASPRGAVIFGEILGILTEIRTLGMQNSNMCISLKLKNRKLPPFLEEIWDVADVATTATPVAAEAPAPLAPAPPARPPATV
Procedure: Transfections of mammalian cell lines (CHO-K1 Chinese hamster ovary) ATCC number CCL61 or cos-1 (Monkey cell line) were performed using either calcium phosphate precipitation (Gorman, Chapter 6 of “DNA cloning: a practical approach. Vol 2 D. M. Glover ed/.(1985) IRL Press, Oxford) or using LipofectAMINE (Gibco BRL Cat. No. 18324–012, following manufacturer's instructions). […] 293 cells were transfected using analogous methods.
The mammalian expression vector used in this experiment was pcDNA3 (Invitrogen). The GRHEcR 2.7 kb BamHI DNA fragment (isolated from pMF6GRHEcR) was introduced into the pcDNA3 BamHI vector. The recombinants were oriented by restriction enzyme mapping. The DNA sequence of the junctions was determined to ensure correct orientation and insertion (pcDNA3GRHEcR, FIG. 25).
The reporter plasmid for mammalian cell system was produced by taking pSWBGAL plasmid and replacing the CRESW SpeI/ClaI fragment for a synthetic 105 bp DNA fragment containing 4 copies of the glucocorticoid response element (GRE) and flanked by SpeI at the 5′ end and AflII at the 3′ end.
The two oligonucleotides were purified annealed and ligated to pSWBGAL SpeI/AflII to produce pSWGRE4 (FIG. 26).

[3] = target: T2, glucocorticoid/Heliothis ecdysone chimeric receptor; assay: Maize protoplast GUS reporter assay with pMF6GRHEcR and p221.9GRE6; format: cell-based, Heliothis virescens; design: expressed in transfected cells; host or cells: maize protoplasts (A5); tobacco mesophyll protoplasts (A6); CHO-K1 (A7); HEK293 (A8); stably transformed tobacco plants (A9); conditions: maize protoplasts
Procedure: Protoplasts were isolated from a maize suspension culture derived from BE70×A188 embryogenic callus material, which was maintained by subculturing twice weekly in MS0.5mod. (MS medium supplemented with 3% sucrose, 690 mg/l proline, 1 g/l myo-inositol, 0.2 g/l casein acid hydrolysate, 0.5 mg/l 2,4-D, pH 5.6). Cells from suspensions two days post subculture were digested in enzyme mixture (2.0% Cellulase RS, 0.2% Pectolyase Y23, 0.5 M Mannitol, 5 mM CaCl2.2H2O, 0.5% MES, pH 5.6, ˜660 mmol/kg) using ˜10 ml/g cells, incubating at 25° C., dim light, rotating gently for ˜2 hours. The digestion mixture was sieved sequentially through 250 μm and 38 μm sieves, and the filtrate centrifuged at 700 rpm for 3.5 minutes, discarding the supernatant. The protoplasts were resuspended in wash buffer (0.358 M KCl, 1.0 mM NH4NO3, 5.0 mM CaCl2.2H2O, 0.5 mM KH2PO4, pH 4.8, ˜670 mmol/kg) and pelleted as before. This washing step was repeated. The pellet was resuspended in wash buffer and the protoplasts were counted. Transformation was achieved using a Polyethylene glycol method based on Negrutiu et al. Protoplasts were resuspended at 2×10^6/ml in MaMg medium (0.4 M Mannitol, 15 mM MgCl2, 0.1% MES, pH 5.6, ˜450 mmol/kg) aliquotting 0.5 ml/treatment (i.e. 1×10^6 protoplasts/treatment). Samples were heat shocked at 45° C. for 5 minutes then cooled to room temperature. […]

SMILES | marker gene activity ([1]; 100 μM) | chemical induced reporter gene activity [2] | response of reporter ([3]; 100 μM) | chemical induced reporter gene activity / induced levels of expression ([1]; concentration not given) | chemical induced reporter gene activity ([3]; concentration not printed (FIG. 20))
CC(C)CC[C@@H](O)[C@](C)(O)[C@H]1CC[C@@]2(O)C3=CC(=O)[C@]4(O)C[C@@H](O)[C@@H](O)C[C@]4(C)[C@H]3[C@H](O)C[C@]12C [Muristerone A] | significant elevation of marker gene activity | induction of reporter activity was observed | no response |  | 
CCc1ccc(C(=O)NN(C(=O)c2cc(C)cc(C)c2)C(C)(C)C)cc1 [RH5992, 3,5-dimethylbenzoic acid 1-1(1,1-dimethylethyl)-2(4-ethylbenzoyl)hydrazide] |  | significant chemical induced reporter gene activity |  | no chemical induced reporter gene activity | significant chemical induced reporter gene activity
